Experimental data from patent US20120329879A1, “BETA-ADRENERGIC RECEPTOR AGONISTS AND USES THEREOF” (THE UNIVERSITY OF TENNESSEE RESEARCH FOUNDATION, priority 2010, published 2012).

How the values were obtained:
[1] = test system: Human retinal endothelial cells (HREC); assay: TNFalpha and cleaved caspase 3 ELISA in retinal endothelial cells cultured in high glucose; type: cell-based
Description: (§1) Human retinal endothelial cells (HREC) were purchased from Cell Systems (Kirkland, Wash.) and grown in either basal (5 mM glucose) or growth (25 mM glucose) media. Both media is supplemented with 10% FBS and antibiotics. The day prior to experiments, cells are serum-starved for 18-24 hours. Rat Müller cells (rMC-1) were grown in DMEM medium with 5 mM glucose or 25 mM glucose. Media was supplemented with 10% FBS and antibiotics. Cells were serum starved prior to all experiments for 18-24 hours.
(§2) Human retinal endothelial cells (HREC) and rat Muller cells (rMC-1) in both glucose conditions were treated with Compound 2 at doses of 10 nM, 50 nM, 100 nM, 1 μM, and 10 μM of Compound 2. Cells of each type were grown in medium containing L-glucose to control for changes in osmolarity. 10 μM isoproterenol was also used for each condition as a positive control. Müller cells were treated for 1 hour and 24 hours, while HREC were treated for 30 and 60 minutes.
(§3) Following treatment, cells were collected into lysis buffer containing protease and phosphatase inhibitors. ELISA analyses for TNFalpha, cleaved caspase 3, and PKA were done according to manufacturers instructions. Data is compared against non-treated cells and cells at the various doses. A Kruskal-Wallis test is done, with a Dunn's test for secondary analyses. […] The dose that decreases TNFalpha and caspase 3 levels also increases PKA activity.

[2] = test system: Rat Müller cells (rMC-1); assay: TNFalpha and cleaved caspase 3 ELISA in Müller cells cultured in high glucose; type: cell-based
Description: as §1, §2, §3

[3] = Body weight, blood glucose, blood pressure and intraocular pressure in streptozotocin diabetic rats on eye drop therapy; type: in vivo, rat; settings: rats, 50 mM topical dose of isoproterenol
Description: Male Lewis rats purchased from Charles River were used. Diabetic rats received a single injection of 60 mg/kg streptozotocin (Fisher, Pittsburgh, Pa.). […] All rats were weighed weekly and only rats with non-fasting blood glucose levels >250 mg/dl were considered diabetic. The designation of diabetic was made at the beginning of the experiments. Glucose was measured bimonthly. No insulin was administered to the rats at any time. To determine whether topical application of Compound 2 could reach the retina and elicit response, dose and time course studies were performed. For those studies, animals were made diabetic for 2 months using STZ. For 4 days, rats received a variety of doses of either Compound 2 (1 mM to 20 mM) or PBS once or twice each day. After the 4 days of eye drop treatment to both eyes, the diabetic and control animals were euthanized. […] After determining the optimal dose and time course for eye drop treatment for Compound 2, three groups of rats were used for this part of the study (control, diabetic (Diabetic), and diabetic+eye drop (Diab+2). Within 1 week of STZ-injection, 12 rats were put onto eye drop therapy. Rats on the eye drop therapy received a daily application of 4 drops of 1 mM Compound 2 to each eye. To verify that insulin levels were lost in the diabetic animals, insulin ELISA (Rat/Mouse Insulin ELISA kit, Linco, St. Charles, Mo.) was done on blood sampled from all rats at 2 months of age. Rats were sacrificed at 2 or 8 months of age. […] Analyses on the rats were done for acute changes (8 weeks of diabetes, 45 rats) and chronic changes (8 months of diabetes, 45 rats). […] Each month, all rats were tested for visual function: electroretinogram (ERG) and live retinal imaging were performed using Optical Coherence Topography (OCT). […] While the animals were asleep for ERG analyses, blood pressure and pulse were monitored to detect potential negative cardiovascular events.

[4] = test system: retina; settings: given systemically to rodents; cited from earlier work
[5] = REC in high glucose, 50 nM, vs non-treated
[6] = Müller cells in high glucose, 50 nM, vs non-treated
[7] = Müller cells, 10 μM isoproterenol

For `COc1cc(CCNC[C@H](O)c2cc(O)cc(O)c2)cc(OC)c1OC.Cl` [Compound 4, 5-(1-hydroxy-2-[2-(3,4,5-trimethosy-phenyl)-ethylamino]-ethyl)-benzene-1,3-diol hydrochloride], the “beta-2-adrenergic receptor activity (ELISA data)” value ([1]; REC cells, 50 nM) was “has more beta-2-adrenergic receptor activity”, the “TNFalpha levels, in words” value [1, 5] was “reduce TNFalpha levels” and the “cleaved caspase 3 levels, in words” value [1, 5] was “reduce TNFalpha levels and the cleavage of caspase 3”. The “time to activate response compared with Compound 2” value ([1]; retinal endothelial cells, 50 nM) was “does take longer to activate response”, the “beta-2-adrenergic receptor activity (ELISA data)” value ([2]; Muller cells, 50 nM) was “has more beta-2-adrenergic receptor activity” and the “effectiveness and speed compared with Compound 2” value ([2]; Muller cells, 50 nM) was “more effective and works faster than Compound 2”. For the same compound, the “TNFalpha levels, in words” value [2, 6] was “reduce TNFalpha levels” and the “cleaved caspase 3 levels, in words” value [2, 6] was “reduce TNFalpha levels and the cleavage of caspase 3”.

With `COc1cc(CCNC[C@H](O)c2ccc(O)c(O)c2)cc(OC)c1OC` [Compound 3, 4-[1-hydroxy-2-(1-ethylamino-3-,4-,5-trimethoxyphenyl)ethyl]benzene-1,2-diol] the “TNFalpha levels, in words” value [1, 5] was “reduced”, the “cleaved caspase 3 levels, in words” value [1, 5] was “reduced the cleavage of caspase 3” and the “TNFalpha levels, in words” value [2, 6] was “significantly reduced TNFalpha within 1 hour”. For the same compound, the “cleaved caspase 3 levels, in words” value [2, 6] was “reduced the cleavage of caspase 3”.

With `CC(C)NCC(O)c1ccc(O)c(O)c1` (centres unmarked) [isoproterenol, 4-[1-hydroxy-2-(isopropylamino)ethyl]benzene-1,2-diol, reference compound] the “negative cardiovascular events (blood pressure and pulse)” value [3] was “these events have not been observed”, the “cleaved caspase 3 levels, in words” value ([1]; REC in hyperglycemic conditions, isoproterenol, concentration not given) was “can decrease cleaved caspase 3 levels” and the “TNFalpha reduction, in words” value ([1]; retinal endothelial cells, 10 μM in vitro) was “did not significantly reduce TNFalpha”. The “concentration required for the same response (reduction of cleaved caspase 3 and TNFalpha)” value ([2]; Müller cells in high glucose, compared with 50 nM Compound 2) was 10 µM, the “cleaved caspase 3 levels, in words” value ([2]; Müller cells in hyperglycemic conditions, isoproterenol, concentration not given) was “can decrease cleaved caspase 3 levels” and the “time for blockade of apoptosis” value [2, 7] was 24 h. The “time for inhibition of TNFalpha activity” value [2, 7] was at most 1 h.

With `COc1cc(CCNC[C@H](O)c2ccc(O)c(O)c2)cc(OC)c1OC.Cl` (single isomer, unassigned) [R-isomer of Compound 2] the “TNFalpha concentration and cleaved caspase 3: comparison of isomers” value ([1]; retinal endothelial cells, 50 nM, 1 hour or 24 hours) was “superior to the S-isomer of Compound 2 and racemic Compound 2” and the “TNFalpha concentration and cleaved caspase 3: comparison of isomers” value ([2]; Muller cells, 50 nM, 1 hour or 24 hours) was “superior to the S-isomer of Compound 2 and racemic Compound 2”.

For `CC(C)NCC(O)COc1cccc2ccccc12` (centres unmarked) [propranolol], the “electrical activity in the retina” value [4] is listed as “produced significant deficits in the electrical activity in the retina” and the “growth factors that may promote neovascularization” value [4] is listed as “activated growth factors that may promote neovascularization”.
